From ChEMBL document CHEMBL1201862, “PubChem BioAssay data set” (2004)
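Growth conditions: 96-well plates. Treatment: test compound, 48 hours, 5 concentrations. Analysis: linear interpolation between bracketing concentrations; unreached endpoints set to highest concentration. Here, GI50 denotes the concentration required for 50% inhibition of growth.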 Active and inactive are the calls of the source. No stated cut-off is given here; in the data, active = GI50 up to about 1.1 µM and inactive = higher.

Tests used:
Assay in all cases: growth of human tumour cells (NCI), 48 h
SF-295 = system: SF-295
NCI-H226 = system: NCI-H226
SN12C = system: SN12C
RPMI-8226 = system: RPMI-8226
HOP-92 = system: HOP-92
Hs-578T = system: Hs-578T
T47D = system: T47D
HCT-15 = system: HCT-15
LOX IMVI = system: LOX IMVI
M14 = system: M14
SF-268 = system: SF-268
SR = system: SR
MDA-N = system: MDA-N
NCI/ADR-RES = system: NCI/ADR-RES
HL-60 = system: HL-60
HCC 2998 = system: HCC 2998
SK-MEL-5 = system: SK-MEL-5
SW-620 = system: SW-620
UACC-257 = system: UACC-257
SK-MEL-2 = system: SK-MEL-2

| SMILES | GI50 (SF-295) | GI50 (NCI-H226) | GI50 (SN12C) | GI50 (RPMI-8226) | GI50 (HOP-92) | GI50 (Hs-578T) | GI50 (T47D) | GI50 (HCT-15) | GI50 (LOX IMVI) | GI50 (M14) | GI50 (SF-268) | GI50 (SR) | GI50 (MDA-N) | GI50 (NCI/ADR-RES) | GI50 (HL-60) | GI50 (HCC 2998) | GI50 (SK-MEL-5) | GI50 (SW-620) | GI50 (UACC-257) | GI50 (SK-MEL-2) |
| --- | --- | --- | --- | --- | --- | --- | --- | --- | --- | --- | --- | --- | --- | --- | --- | --- | --- | --- | --- | --- |
| CC(C)=CCNc1ncnc2c1ncn2CCC(=O)OC(C)(C)C | > 100 µM (inactive) | > 100 µM (inactive) | > 100 µM (inactive) | 72.3 µM (inactive) | 49.7 µM (inactive) | 12.4 µM (inactive) | 24.8 µM (inactive) | > 100 µM | > 100 µM (inactive) | > 100 µM (inactive) | > 100 µM (inactive) | 52.2 µM (inactive) | > 100 µM (inactive) | 42.9 µM (inactive) | > 100 µM (inactive) | > 100 µM (inactive) | 21.4 µM (inactive) | > 100 µM (inactive) | – | – |
| O=C1CCC2(O)C3Cc4ccc(Oc5nnnn5-c5ccccc5)c5c4C2(CCN3CC2CC2)C1O5 (centres undefined) | 70 µM (inactive) | – | > 100 µM (inactive) | 28.9 µM (inactive) | 50.2 µM (inactive) | 28.9 µM (inactive) | 39.5 µM (inactive) | 35.5 µM | 27 µM (inactive) | 18 µM (inactive) | 34.7 µM (inactive) | 15.6 µM (inactive) | 22 µM (inactive) | 86.7 µM (inactive) | – | – | 12.8 µM (inactive) | 33.7 µM (inactive) | 28.2 µM (inactive) | 22.1 µM (inactive) |
| O=S(=O)(O)CCCC1S(=O)(=O)OCCOS1(=O)=O | > 100 µM (inactive) | > 100 µM (inactive) | – | > 100 µM (inactive) | > 100 µM (inactive) | > 100 µM (inactive) | > 100 µM (inactive) | > 100 µM | > 100 µM (inactive) | > 100 µM (inactive) | > 100 µM (inactive) | > 100 µM (inactive) | > 100 µM (inactive) | > 100 µM (inactive) | > 100 µM (inactive) | > 100 µM (inactive) | > 100 µM (inactive) | > 100 µM (inactive) | > 100 µM (inactive) | – |
| Cc1ccc(C(=C2Sc3ccccc3S2)C(=C2Sc3ccccc3S2)c2ccc(C)s2)s1 | > 100 µM (inactive) | > 100 µM (inactive) | > 100 µM (inactive) | > 100 µM (inactive) | – | > 100 µM (inactive) | > 100 µM (inactive) | > 100 µM | – | 76.2 µM (inactive) | > 100 µM (inactive) | 47.5 µM (inactive) | > 100 µM (inactive) | > 100 µM (inactive) | 13.6 µM (inactive) | > 100 µM (inactive) | > 100 µM (inactive) | > 100 µM (inactive) | > 100 µM (inactive) | > 100 µM (inactive) |
| CCCN(CCCc1ccccc1)CCc1ccc2[nH]c(=S)[nH]c2c1 | 12.4 µM (inactive) | 66.5 µM (inactive) | > 100 µM (inactive) | 12.4 µM (inactive) | 8.87 µM (inactive) | 39.8 µM (inactive) | 12.1 µM (inactive) | 25.8 µM | 31.3 µM (inactive) | 16.7 µM (inactive) | 52.4 µM (inactive) | 2.89 µM (inactive) | 19.2 µM (inactive) | 20.5 µM (inactive) | – | 13.3 µM (inactive) | – | 27 µM (inactive) | 25.6 µM (inactive) | 19.3 µM (inactive) |
| CCCC(=O)OCOC(=O)N(C)/N=N/c1ccc(C(=O)OCC)cc1 | 15.8 µM (inactive) | 92.7 µM (inactive) | 27.2 µM (inactive) | 49.1 µM (inactive) | 19.4 µM (inactive) | 27.7 µM (inactive) | 25.2 µM (inactive) | 19.9 µM | 10.7 µM (inactive) | 24.3 µM (inactive) | 28.3 µM (inactive) | 23.7 µM (inactive) | 28.6 µM (inactive) | 28.9 µM (inactive) | – | 15.2 µM (inactive) | 29.6 µM (inactive) | 19.8 µM (inactive) | 33.7 µM (inactive) | 15.2 µM (inactive) |
| O=C1c2ccccc2-c2cc3ccccc3c(=O)n21 | > 100 µM (inactive) | – | > 100 µM (inactive) | 71.1 µM (inactive) | – | > 100 µM (inactive) | > 100 µM (inactive) | > 100 µM | > 100 µM (inactive) | 97.3 µM (inactive) | > 100 µM (inactive) | > 100 µM (inactive) | > 100 µM (inactive) | > 100 µM (inactive) | – | > 100 µM (inactive) | > 100 µM (inactive) | > 100 µM (inactive) | > 100 µM (inactive) | > 100 µM (inactive) |
| O=C1C=CC(=O)c2c1ccc1c3ccccc3n(Cc3ccccc3)c21 | > 100 µM (inactive) | 7.29 µM (inactive) | 21.6 µM (inactive) | 0.231 µM (active) | > 10 µM (inactive) | 42.2 µM (inactive) | 25.1 µM (inactive) | 21.9 µM | 20 µM (inactive) | 18 µM (inactive) | 32.1 µM (inactive) | 10.9 µM (inactive) | 23 µM (inactive) | 42.2 µM (inactive) | – | > 37 µM (inactive) | 32.3 µM (inactive) | 7.21 µM (inactive) | 19 µM (inactive) | 31.5 µM (inactive) |
| CC(=O)O[C@H]1C(=O)[C@@]2(C)[C@H]([C@H](OC(=O)c3ccccc3)[C@]3(O)C[C@H](OC(=O)[C@H](O)[C@@H](NC(=O)c4ccccc4)c4ccc5ccccc5c4)C(C)=C1C3(C)C)[C@]1(OC(C)=O)CO[C@@H]1C[C@@H]2O | 0.304 µM (active) | – | 0.0681 µM (active) | 0.0229 µM (active) | 2.25 µM (inactive) | 0.0191 µM (active) | 2.16 µM (inactive) | 1.54 µM | 0.0887 µM (active) | 0.0466 µM (active) | 0.0239 µM (active) | 0.0239 µM (active) | 0.0101 µM (active) | 15.7 µM (inactive) | 0.0107 µM (active) | 0.0457 µM (active) | 0.0685 µM (active) | 0.0306 µM (active) | 0.0826 µM (active) | 0.0362 µM (active) |
| O=C(O)c1cc2c(cc1CC(Cc1ccccc1)C(=O)O)CCC2 (centres undefined) | > 100 µM (inactive) | > 100 µM (inactive) | > 100 µM (inactive) | > 100 µM (inactive) | – | > 100 µM (inactive) | > 100 µM (inactive) | > 100 µM | > 100 µM (inactive) | > 100 µM (inactive) | > 100 µM (inactive) | > 100 µM (inactive) | > 100 µM (inactive) | > 100 µM (inactive) | > 100 µM (inactive) | > 100 µM (inactive) | > 100 µM (inactive) | > 100 µM (inactive) | > 100 µM (inactive) | > 100 µM (inactive) |
| CC1(C)Oc2ccc3c(=O)cc(-c4ccccc4)oc3c2C1C(=O)O (centres undefined) | > 100 µM (inactive) | > 100 µM (inactive) | > 100 µM (inactive) | – | – | > 100 µM (inactive) | > 100 µM (inactive) | > 100 µM | – | > 100 µM (inactive) | > 100 µM (inactive) | > 100 µM (inactive) | > 100 µM (inactive) | > 100 µM (inactive) | > 100 µM (inactive) | > 100 µM (inactive) | > 100 µM (inactive) | – | > 100 µM (inactive) | > 100 µM (inactive) |
| CC[C@H](C)C(=O)O[C@H]1CCC=C2C=C[C@H](C)[C@H](CC[C@@H]3C[C@@H](O)CC(=O)O3)[C@H]21 [MEVASTATIN] | 3.27 µM (inactive) | 25.4 µM (inactive) | > 78.9 µM (inactive) | 20 µM (inactive) | – | 3.42 µM (inactive) | > 82.8 µM (inactive) | 4.06 µM | 1.97 µM (inactive) | 10 µM (inactive) | 7.31 µM (inactive) | 8.73 µM (inactive) | > 100 µM (inactive) | 10.3 µM (inactive) | 46.6 µM (inactive) | 25.6 µM (inactive) | 20.6 µM (inactive) | 24.7 µM (inactive) | 50.4 µM (inactive) | 5.77 µM (inactive) |
| CC[C@H](C)[C@H](NC(=O)[C@H](Cc1ccc(O)cc1)NCC(F)(F)F)C(=O)OC(C)(C)C | 6.9 µM (inactive) | 9.06 µM (inactive) | 8.81 µM (inactive) | 6.64 µM (inactive) | 8.99 µM (inactive) | 10.3 µM (inactive) | 4.51 µM (inactive) | 10.5 µM | 8.67 µM (inactive) | 7.03 µM (inactive) | 9.71 µM (inactive) | 5.97 µM (inactive) | 8.32 µM (inactive) | 11.7 µM (inactive) | – | 7.29 µM (inactive) | 7.41 µM (inactive) | 9.82 µM (inactive) | 6.82 µM (inactive) | 6.53 µM (inactive) |
| CC(C)C1(C)N=C(C(F)(F)F)c2cc(C(=O)C(F)(F)F)c3ccccc3c2N1 (centres undefined) | 3.38 µM (inactive) | 12.9 µM (inactive) | 2.91 µM (inactive) | 3.53 µM (inactive) | – | 2.5 µM (inactive) | 3.13 µM (inactive) | 3.23 µM | 2.45 µM (inactive) | 4.99 µM (inactive) | 3.02 µM (inactive) | 4.39 µM (inactive) | 3.04 µM (inactive) | 2.78 µM (inactive) | 4.62 µM (inactive) | 3.69 µM (inactive) | 10.7 µM (inactive) | 5.55 µM (inactive) | 6.55 µM (inactive) | 2.51 µM (inactive) |
| NC(=O)CC(N)c1nnn[nH]1 (centres undefined) | > 100 µM (inactive) | > 100 µM (inactive) | > 100 µM (inactive) | > 100 µM (inactive) | > 100 µM (inactive) | > 100 µM (inactive) | > 100 µM (inactive) | > 100 µM | > 100 µM (inactive) | > 100 µM (inactive) | > 100 µM (inactive) | > 100 µM (inactive) | > 100 µM (inactive) | > 100 µM (inactive) | > 100 µM (inactive) | – | > 100 µM (inactive) | > 100 µM (inactive) | > 100 µM (inactive) | > 100 µM (inactive) |
